# ChEMBL document CHEMBL1127973, “A comparative molecular field analysis derived model of the binding of taxol analogues to microtubules” (Bioorg Med Chem Lett, 1994)
# Columns and labels:
# [1] = target: T1, Tubulin (Homo sapiens) (UniProt P68371+Q9H4B7+P0DPH7+P68366+Q13509+Q71U36+P04350+Q3ZCM7+P07437+P68363+Q9BQE3+Q6PEY2+Q13885+Q9BVA1+Q9BUF5); assay: Binding affinity to microtubules, activity expressed as log 1/ID50 of compound/ID50 of paclitaxel; type: protein-complex assay
# [2] = target: T1, Tubulin (Homo sapiens); assay: Binding affinity to microtubules, activity expressed as ID50 of compound/ID50 of paclitaxel; type: protein-complex assay
Log 1/ratio [1],ID50 ratio [2],Compound
-0.851,7.1,CC(=O)O[C@H]1C(=O)[C@@]2(C)[C@H]([C@H](OC(=O)c3ccccc3)[C@]3(O)C[C@H](OC(=O)[C@H](O)[C@@H](NC(=O)c4ccccc4)c4ccc5ccccc5c4)C(C)=C1C3(C)C)[C@]1(OC(C)=O)CO[C@@H]1C[C@@H]2O
-0.398,0.4,CC(=O)O[C@H]1C(=O)[C@]2(C)[C@@H](OC(=O)[C@H](O)[C@@H](O)[C@H](O)CO)C[C@H]3OC[C@@]3(OC(C)=O)[C@H]2[C@H](OC(=O)c2ccccc2)[C@]2(O)C[C@H](OC(=O)[C@H](O)[C@@H](NC(=O)c3ccccc3)c3ccccc3)C(C)=C1C2(C)C
-2.23,170,CC(=O)O[C@@]12CO[C@@H]1C[C@H](O)[C@@]1(C)C(=O)[C@H](O)C3=C(C)[C@@H](OC(=O)[C@@H](NC(=O)c4ccccc4)[C@H](O)c4ccccc4)C[C@@](O)([C@@H](OC(=O)c4ccccc4)[C@H]21)C3(C)C
0.222,0.6,CC(=O)O[C@@]12CO[C@@H]1C[C@H](OC(=O)[C@H](O)[C@@H](O)[C@H](O)CO)[C@@]1(C)C(=O)[C@H](O)C3=C(C)[C@@H](OC(=O)[C@H](O)[C@@H](NC(=O)c4ccccc4)c4ccccc4)C[C@@](O)([C@@H](OC(=O)c4ccccc4)[C@H]21)C3(C)C
-0.301,2,CC(=O)O[C@H]1C(=O)[C@@]2(C)[C@H]([C@H](OC(=O)c3ccccc3)[C@]3(O)C[C@H](OC(=O)[C@H](O)[C@@H](NC(=O)c4cccc(Cl)c4)c4ccccc4)C(C)=C1C3(C)C)[C@]1(OC(C)=O)CO[C@@H]1C[C@@H]2O
0.0969,0.8,CC(=O)O[C@H]1C(=O)[C@@]2(C)[C@H]([C@H](OC(=O)c3ccccc3)[C@]3(O)C[C@H](OC(=O)[C@H](O)[C@@H](NC(=O)c4ccccc4)c4ccccc4)C(C)=C1C3(C)C)[C@]1(OC(C)=O)CO[C@@H]1C[C@@H]2O (stereo in doubt; 14)
-0.644,4.4,CC(=O)O[C@H]1C(=O)[C@@]2(C)[C@H]([C@H](OC(=O)c3ccccc3)[C@]3(O)C[C@H](OC(=O)[C@H](O)[C@@H](NC(=O)c4ccccc4)c4cccc(Cl)c4)C(C)=C1C3(C)C)[C@]1(OC(C)=O)CO[C@@H]1C[C@@H]2O
-0.477,3,CC(=O)O[C@H]1C[C@]2(C)[C@@H](O)C[C@H]3OC[C@@]3(OC(C)=O)[C@H]2[C@H](OC(=O)c2ccccc2)[C@@]2(O)C[C@H](OC(=O)[C@H](O)[C@@H](NC(=O)c3ccccc3)c3ccccc3)C(C)C1C2(C)C (some centres not stated)
-1,10,CC(=O)O[C@H]1C(=O)[C@@]2(C)[C@H]([C@H](OC(=O)c3ccccc3)[C@]3(O)C[C@H](OC(=O)[C@H](NC(=O)c4ccccc4)[C@@H](O)c4ccccc4)C(C)=C1C3(C)C)[C@]1(OC(C)=O)CO[C@@H]1C[C@@H]2O
,2.1,CC(=O)O[C@H]1C(=O)[C@@]2(C)[C@H]([C@H](OC(=O)c3ccccc3)[C@]3(O)C[C@H](OC(=O)[C@H](O)[C@@H](NC(=O)c4ccc(Cl)c(Cl)c4)c4ccccc4)C(C)=C1C3(C)C)[C@]1(OC(C)=O)CO[C@@H]1C[C@@H]2O
,21.4,CC(=O)O[C@H]1C(=O)[C@]2(C)[C@@H](OC(=O)c3ccc(N=[N+]=[N-])cc3)C[C@H]3OC[C@@]3(OC(C)=O)[C@H]2[C@H](OC(=O)c2ccccc2)[C@]2(O)C[C@H](OC(=O)[C@H](O)[C@@H](NC(=O)c3ccccc3)c3ccccc3)C(C)=C1C2(C)C
,1.2,CC(=O)O[C@H]1C(=O)[C@@]2(C)[C@H]([C@H](OC(=O)c3ccccc3)[C@]3(O)C[C@H](OC(=O)[C@H](O)[C@@H](NC(=O)CC(C)C)c4ccccc4)C(C)=C1C3(C)C)[C@]1(OC(C)=O)CO[C@@H]1C[C@@H]2O
,0.7,CC(=O)O[C@H]1C(=O)[C@@]2(C)[C@H]([C@H](OC(=O)c3ccccc3)[C@]3(O)C[C@H](OC(=O)[C@H](O)[C@@H](NC(=O)c4ccccc4)c4ccccn4)C(C)=C1C3(C)C)[C@]1(OC(C)=O)CO[C@@H]1C[C@@H]2O
,2,CC(=O)O[C@H]1C(=O)[C@@]2(C)[C@H]([C@H](OC(=O)c3ccccc3)[C@]3(O)C[C@H](OC(=O)[C@H](O)[C@@H](NC(=O)c4ccc(N=[N+]=[N-])cc4)c4ccccc4)C(C)=C1C3(C)C)[C@]1(OC(C)=O)CO[C@@H]1C[C@@H]2O

# Second part, the molecule before the results:
Compound,Log 1/ratio [1],ID50 ratio [2]
CC(=O)O[C@H]1C(=O)[C@@]2(C)[C@H]([C@H](OC(=O)c3ccccc3)[C@]3(O)C[C@H](OC(=O)[C@H](O)[C@@H](N)c4ccccc4)C(C)=C1C3(C)C)[C@]1(OC(C)=O)CO[C@@H]1C[C@@H]2O,-1.64,44
CC(=O)O[C@H]1C(=O)[C@@]2(C)[C@H]([C@H](OC(=O)c3ccccc3)[C@]3(O)C[C@H](OC(=O)[C@H](O)[C@@H](NC(=O)c4ccccc4)c4ccc(Cl)cc4)C(C)=C1C3(C)C)[C@]1(OC(C)=O)CO[C@@H]1C[C@@H]2O,-0.279,1.9
CC(=O)O[C@@]12CO[C@@H]1C[C@H](O)[C@@]1(C)C(=O)[C@H](O)C3=C(C)[C@@H](OC(=O)[C@@H](O)[C@@H](N)c4ccccc4)C[C@@](O)([C@@H](OC(=O)c4ccccc4)[C@H]21)C3(C)C,-1.48,30
CC(=O)O[C@@]12CO[C@@H]1C[C@H](O)[C@@]1(C)C(=O)[C@H](O)C3=C(C)[C@@H](OC(=O)[C@@H](O)Cc4ccccc4)C[C@@](O)([C@@H](OC(=O)c4ccccc4)[C@H]21)C3(C)C,-0.544,3.5
CC(=O)O[C@@]12CO[C@@H]1C[C@H](O)[C@@]1(C)C(=O)[C@H](O)C3=C(C)[C@@H](OC(=O)[C@H](O)[C@@H](NC(=O)c4ccccc4)c4ccccc4)C[C@@](O)([C@@H](OC(=O)c4ccccc4)[C@H]21)C3(C)C,-0.114,1.3
CC(=O)O[C@@]12CO[C@@H]1C[C@H](O)[C@@]1(C)C(=O)[C@H](O)C3=C(C)[C@@H](OC(=O)CCc4ccccc4)C[C@@](O)([C@@H](OC(=O)c4ccccc4)[C@H]21)C3(C)C,-1.23,17
CC(=O)O[C@@]12CO[C@@H]1C[C@H](O)[C@@]1(C)C(=O)[C@H](O)C3=C(C)[C@@H](OC(=O)[C@@H](O)[C@@H](NC(=O)c4ccccc4)c4ccccc4)C[C@@](O)([C@@H](OC(=O)c4ccccc4)[C@H]21)C3(C)C,-0.114,1.3
CC(=O)O[C@@H](C(=O)O[C@H]1C[C@@]2(O)[C@@H](OC(=O)c3ccccc3)[C@@H]3[C@]4(OC(C)=O)CO[C@@H]4C[C@H](O)[C@@]3(C)C(=O)[C@H](O)C(=C1C)C2(C)C)[C@@H](NC(=O)OC(C)(C)C)c1ccccc1,-1.48,10
CC(=O)O[C@H]1C(=O)[C@]2(C)[C@@H](OC(=O)c3ccc(C(=[N+]=[N-])C(F)(F)F)cc3)C[C@H]3OC[C@@]3(OC(C)=O)[C@H]2[C@H](OC(=O)c2ccccc2)[C@]2(O)C[C@H](OC(=O)[C@H](O)[C@@H](NC(=O)c3ccccc3)c3ccccc3)C(C)=C1C2(C)C,,3.4
CC(=O)O[C@H]1C(=O)[C@@]2(C)[C@H]([C@H](OC(=O)c3ccccc3)[C@]3(O)C[C@H](OC(=O)C[C@@H](NC(=O)OC(C)(C)C)c4ccccc4)C(C)=C1C3(C)C)[C@]1(OC(C)=O)CO[C@@H]1C[C@@H]2O,,4.1
CC(=O)O[C@H]1C(=O)[C@@]2(C)[C@H]([C@H](OC(=O)c3ccccc3)[C@]3(O)C[C@H](OC(=O)[C@@H](O)Cc4ccccc4)C(C)=C1C3(C)C)[C@]1(OC(C)=O)CO[C@@H]1C[C@@H]2O,,15.7
